According to US20100204157A1, “USE OF A PEPTIDE AS A THERAPEUTIC AGENT” (priority 2007, published 2010):
Where no end group is shown, it is not given here.

What was measured:
HepG2-2.2.15 cells = assay: Cell viability in HepG2-2.2.15 cells (dye uptake); type: cell-based; settings: test peptide 10 micrograms per ml, dye uptake assay
HIV-1IIIB = assay: HIV-1 antiviral assay (CPE reduction, MTS); type: cell-based; settings: peptide 10 micrograms per ml, 6 days post-infection
CEM-SS cells = assay: Cytotoxicity in CEM-SS cells (MTS); settings: peptide 10 micrograms per ml, MTS
MRC-5 cells = settings: human, 6 days
Description: (§1) For cytotxicity testing, MRC-5 cells were seeded at 2,500 cells/well in 96 well plates using growth medium. […] The following day, peptide were added and tested in duplicates. After a 6 days incubation period, cell viability was measured using CellTiter 96 Solution (Promega). Plates were incubated for additional 4 hours at 37° C.

Pseudomonas aeruginosa = Pseudomonas aeruginosa assay; type: cell-based; settings: Pseudomonas aeruginosa growth; peptide 10 micrograms per ml; read visually
Description: The antibacterial assay was conducted using clear, U-bottom 96-well microtiter plates. Cation-adjusted Mueller-Hinton Broth (MHB) was used for testing Pseudomonas aeruginosa. The peptide of the invention (0.1 ml of each—10 micrograms per ml—) were dispensed into wells in duplicate. Then the wells were inoculated with 5×10^5 CFU/mL Pseudomonas aeruginosa in 0.1 ml volume. For control purposes, each plate included 4 wells containing media without bacterial inoculum and 4 wells containing medium with inoculum but without peptide. The plates were incubated for 12 h at 37° C., and read visually 18-24 hours post-incubation. Growth control of Pseudomonas aeruginosa was examined first to determine adequacy of media preparations and growth conditions. Acceptable growth is defined as ≧2 mm wide button of cells at the bottom of each sample well, or obvious turbidity in the culture supernatant. Test wells were examined and scored as positive/negative for activity. A positive score for activity is based on complete inhibition of macroscopic growth of the test Pseudomonas aeruginosa.

Streptococcus pneumoniae = Streptococcus pneumoniae assay; type: cell-based; settings: Streptococcus pneumoniae growth; peptide 10 micrograms per ml; read visually
Description: The antibacterial assay was conducted using clear, U-bottom 96-well microtiter plates. Cation-adjusted Mueller-Hinton Broth (MHB) was used for testing Streptococcus pneumoniae. The peptide of the invention (0.1 ml of each—10 micrograms per ml—) were dispensed into wells in duplicate. Then the wells were inoculated with 5×10^5 CFU/mL Streptococcus pneumoniae in 0.1 ml volume. For control purposes, each plate included 4 wells containing media without bacterial inoculum and 4 wells containing medium with inoculum but without peptide. The plates were incubated for 12 h at 37° C., and read visually 18-24 hours post-incubation. Growth control of Streptococcus pneumoniae was examined first to determine adequacy of media preparations and growth conditions. Acceptable growth is defined as ≧2 mm wide button of cells at the bottom of each sample well, or obvious turbidity in the culture supernatant. Test wells were examined and scored as positive/negative for activity. A positive score for activity is based on complete inhibition of macroscopic growth of the test Streptococcus pneumoniae.

MRSA = assay: Methicillin Resistant Staphylococcus Aureus (MRSA) assay; type: cell-based; settings: MRSA growth; peptide 10 micrograms per ml; read visually
[1] = Cytotoxicity in MRC-5 cells (CellTiter 96); settings: human, MRC-5 cells (embryonal lung fibroblasts)
Description: as §1

[2] = Cell viability in HepG2-2.2.15 cells (dye uptake); type: cell-based; settings: human, HepG2-2.2.15 cells (stable line containing HBV ayw genome), test peptide 10 micrograms per ml, dye uptake assay
[3] = Cytotoxicity in CEM-SS cells (MTS); settings: human

Question: For `Nc1ccn([C@@H]2CS[C@H](CO)O2)c(=O)n1` [3TC, Lamivudine, reference compound], which “% Cell Viability” value (HepG2-2.2.15 cells) is on record?
Answer: 95.8%

Question: Which results are given for `Cc1cn([C@H]2C[C@H](N=[N+]=[N-])[C@@H](CO)O2)c(=O)[nH]c1=O` [AZT, reference compound]?
Answer: % CPE reduction in HIV-1 infected CEM-SS cells (HIV-1IIIB): 99%; % Cell Viability (CEM-SS cells): 97%

Question: With `Nc1nc(O)c2ncn(COC(CO)CO)c2n1` [Ganciclovir] as the molecule, how does the “% Cell Viability” value (MRC-5 cells) read?
Answer: 100%

Question: With FFVAP [Phe-Phe-Val-Ala-Pro] as the molecule, how does the “% inhibition” value (Pseudomonas aeruginosa) read?
Answer: 0.0%

Question: What about the “% inhibition” value (Streptococcus pneumoniae) of the same molecule?
Answer: 0.0%

Question: What about the “% inhibition” value (MRSA) of the same molecule?
Answer: 0.0%

Question: What about the viability at 144 h [1] of the same molecule?
Answer: 100%

Question: And the viability at 144 h, 10 micrograms per ml [2]?
Answer: 98.1%

Question: What about the viability at 10 micrograms per ml [3] of the same molecule?
Answer: 100%
